One assay deals with NCI-H838. Format: cell-based, human. The settings on record: 24 h. As for the experimental part:
(§1) The percentage of cancer cell survival after being treated with peptides was assessed with 3-(4,5-dimethylthiazol-2-yl-)-2,5-diphenyltetrazolium bromide (MTT). The principle is the reduction process of the yellow tetrazolium to DMSO-soluble formazan crystals caused by the metabolic capability of living cells. All the cancerous and normal cells were obtained from the American Type Culture Collection (Rockville, VA, USA). Human lung cancer NCI-H838 and NCI-H460 were cultured in Roswell Park Memorial Institute (RPMI)-1640 medium (Gibco, Paisley, UK) and mixed with 10% (v/v) fetal bovine serum (FBS) (Gibco, Campinas, Brazil) and 1% penicillin–streptomycin (Gibco, Grand Island, NY, USA) 89/10/1 v/v/v). U251MG and MCF-7 were cultured in Dulbecco’s Modified Eagle medium (DMEM) (Gibco, Paisley, UK) and mixed with 10% FBS and 1% penicillin–streptomycin. HCT 116 was cultured in McCoy’s 5A (modified) medium (Gibco, Paisley, UK) and mixed with 10% FBS and 1% penicillin–streptomycin. MRC-5 and HaCat were cultured in Minimum Essential Medium (MEM) (Gibco, Paisley, UK) and mixed with 10% FBS and 1% penicillin–streptomycin. Cells were cultured and seeded in a 96-well plate at a density of 8000 cells/well with the corresponding medium and incubated for 24 h at 37 °C with 5% CO2. After 24 h of incubation, the cells were starved with a serum-free medium for 4 h at 37 °C. Then, the cells were incubated with different concentrations of peptide solution in a serum-free medium from 1 nM to 100 µM at 37 °C for 24 h. Meanwhile, triton X-100 (0.1%) (Sigma-Aldrich, St. Louis, MO, USA) and PBS were chosen as positive and negative controls. After 10 µL of MTT (5 mg/mL) was added to each well away from light and incubated at 37 °C for 2 h, the formazan generated by mitochondria was dissolved with DMSO. The absorbance was detected at a wavelength of 570 nm by a Synergy HT plate reader (Bio-Tek, Shoreline, WA, USA).

The test system of the next assay is U251MG. The format is cell-based, human. The settings on record: 24 h. As for the experimental part: as §1
Another assay has as its system MCF-7. Format: cell-based, human. The settings on record: 24 h. The method, then:
as §1

The next assay relates to NCI-H460. Format: cell-based, human. The settings on record: 24 h. As for the experimental part:
as §1

The subject of assay [1] is MRSA (ATCC 12493) biofilm. The format is cell-based, methicillin-resistant Staphylococcus aureus. The note with it: ATCC 12493, 24 h. The method, then: (§2) To test the anti-biofilm ability of PSTO2 and its analogues, three types of microorganisms (S. aureus ATCC® 6538, E. coli ATCC® 8739, and MRSA NCTC® 12493) were chosen. Tryptic soy broth (TSB) and Lysogeny broth (LB) were used to culture microorganisms. The peptide was dissolved in an autoclaved PBS solution and diluted into concentrations ranging from 51,200 µM to 100 µM. One µL of peptide solution of each concentration was added into a 96-well plate with 100 µL bacterium at 5 × 10^5 CFU/mL. The plate was incubated at 37 °C for 24 h, with shaking at 200 rpm. After overnight incubation, the planktonic bacteria were washed up. Then, 100 µL of methanol was used to fix the biofilms onto the bottom, and 100 µL of 0.1% crystal violet solution (Sigma-Aldrich, Gillingham, UK) was added to each well to stain the biofilms. After drying, 160 µL of acetic acid (30% in deionised water, Sigma-Aldrich, UK) was added to each well to dissolve the shaded parts. The absorbance was detected with the Synergy HT plate reader at λ = 595 nm.
(§3) For the MBEC assay, 100 µL of the bacterium of 5 × 10^5 CFU/mL was transferred into an empty 96-well plate, and the plate was incubated at 37 °C for 24 h to obtain the biofilms primarily. Then, the peptide solution from 512 µM to 1 µM was transferred into a corresponding well, followed by 24 h incubation at 37 °C, with shaking at 200 rpm. After this, the plate was handled using the identical method to the plate in the MBIC assay, and the absorbance of each well was detected with the Synergy HT plate reader at λ = 595 nm. The minimum concentration at which the peptide can eradicate the existing biofilm was recorded as the MBEC value.

In assay [2] the test system is P. aeruginosa (ATCC 9027). The format is cell-based, Pseudomonas aeruginosa. The note with it: ATCC 9027, 24 h. An excerpt: Seven microorganism strains were used to preliminarily evaluate the antimicrobial activity of PSTO2 and its analogues, including Staphylococcus aureus (S. aureus) (ATCC® 6538), methicillin-resistant Staphylococcus aureus (MRSA) (NCTC® 12493), Enterococcus faecalis (E. faecalis) (NCTC® 12697), E. coli (ATCC® 8739), Klebsiella pneumonia (K. pneumonia) (ATCC® 43816), Pseudomonas aeruginosa (P. aeruginosa) (ATCC® CRM 9027), Acinetobacter baumanni (A. baumanni) (BAA® 747), and Candida albicans (C. albicans) (ATCC® 10231). In this study, the strains were cultured in Mueller–Hinton broth (MHB), nutrient broth (NB), and yeast–peptone–dextrose broth (YPD-B) correspondingly at 37 °C, with shaking at 120 rpm. Each peptide was dissolved from 128 μM to 1 μM and mixed with the bacterium at 5 × 10^5 CFU/mL. In this process, bacteria with culture medium were used as the growth control group; PBS was set up as the vehicle control group; sterile culture medium was used as the blank control group; and Norfloxacin at a concentration of 2 mg/mL and amphotericin B at a concentration of 1 mg/mL were set up as the positive control group for bacteria and fungi, respectively.
After being incubated for 24 h, a Synergy HT plate reader (Bio-Tek, Shoreline, WA, USA) was used to detect the absorbance of each well in the 96-well plate at λ = 550 nm. The concentration at which no visible turbidity could be recorded was the MIC value. Beginning from the MIC value, 10 µL of solution in each clear well was dropped on the sterile agar plates. The plate was checked the next day for colony formation, and the lowest concentration at which no colony growing was recorded as an MBC value.

For assay [3], the system named is E. coli (ATCC 8739) biofilm. The format is cell-based, Escherichia coli. The note with it: ATCC 8739, 24 h. The method, then:
as §2, §3

pIC50: −log10 of the molar value. Where a SMILES comes first, the peptide text is derived from it. Where no end group is shown, it is not given here. [ ]: non-standard residue; d: D form.

The results in this text go back to paper PMC11360180, “Enhancement of Antimicrobial Function by L/D-Lysine Substitution on a Novel Broad-Spectrum Antimicrobial Peptide, Phylloseptin-TO2: A Structure-Related Activity Research Study” (Pharmaceutics, 2024).

On to `CC[C@H](C)[C@H](NC(=O)[C@H](C)NC(=O)[C@@H](CCCCN)NC(=O)[C@@H]1CCCN1C(=O)[C@@H](NC(=O)[C@H](CC(C)C)NC(=O)[C@H](CO)NC(=O)[C@H](CC(C)C)NC(=O)[C@@H](N)Cc1ccccc1)[C@@H](C)CC)C(=O)N[C@@H](CCCCN)C(=O)N[C@@H](C)C(=O)N[C@H](C(=O)N[C@@H](CCCCN)C(=O)N[C@@H](C)C(=O)N[C@@H](CC(C)C)C(=O)N[C@@H](C)C(=O)N[C@@H](CCCCN)C(=O)N[C@H](CCCCN)C(=O)N[C@@H](CC(C)C)C(N)=O)C(C)C` [SR2D10] (H-FLSLIP[dK]AIKAVKALAK[dK]L-NH2), for which the negative logarithm of the IC50 (pIC50) with NCI-H838 is 5.02; with U251MG, 4.79; in the assay on MCF-7 it was 4.58; with NCI-H460, 5.11. The MBEC in assay [1] stood at 32 µM; in assay [3] it was 64 µM. Moreover, the figures for the MBIC in assay [1] and in assay [3] were 16 µM and 32 µM, respectively. The MBC in assay [2] was found to be 32 µM. In assay [2], the MIC worked out at 32 µM.

As to `CC[C@H](C)[C@H](NC(=O)[C@H](C)NC(=O)[C@@H](CCCCN)NC(=O)[C@@H]1CCCN1C(=O)[C@@H](NC(=O)[C@H](CC(C)C)NC(=O)[C@H](CO)NC(=O)[C@H](CC(C)C)NC(=O)[C@@H](N)Cc1ccccc1)[C@@H](C)CC)C(=O)N[C@@H](CCCCN)C(=O)N[C@@H](C)C(=O)N[C@H](C(=O)N[C@@H](CO)C(=O)N[C@@H](C)C(=O)N[C@@H](CC(C)C)C(=O)N[C@@H](C)C(=O)N[C@@H](CCCCN)C(=O)N[C@@H](CCCCN)C(=O)N[C@@H](CC(C)C)C(N)=O)C(C)C` [SRD7] (H-FLSLIP[dK]AIKAVSALAKKL-NH2), the negative-log IC50 (pIC50) was 5.48 in the assay on NCI-H838, 4.86 with U251MG, 4.82 in the assay with MCF-7 and 5.64 with NCI-H460. The MBEC was 16 µM in assay [1] and 64 µM in assay [3]. Moreover, the MBIC in assay [1] worked out at 4 µM; in assay [3] it was 32 µM. Also, the MBC in assay [2] is 16 µM. In addition, the MIC in assay [2] turned out to be 16 µM.

Take FLSLIPKAIKAVKALAKKL-NH2 [SR2]: the pIC50 in the assay with NCI-H838 was 5.50; in the assay with U251MG, 5.17; with MCF-7, 5.11; in the assay on NCI-H460, 5.23. Besides, the MBEC in assay [1] and in assay [3] was 16 µM throughout. In assay [2], the MBC worked out at 32 µM. In addition, in assay [3], the MBIC is 8 µM.

As to FLSLIPKAIKAVSALAKKL-NH2 [SR], the pIC50 was 5.54 in the assay on NCI-H838, 5.02 in the assay with U251MG, 5.22 in the assay with MCF-7 and 5.51 in the assay with NCI-H460. The figures for the MBEC in assay [1] and in assay [3] were 16 µM and 16/16 μM, respectively. The MBC in assay [2] worked out at 32 µM. Moreover, the MBIC in assay [3] is on record as 16/16 μM.
